The source of these data is publication PMC8233510 (Molecular Biology and Evolution, 2021).

What all share (assay): […]-SAM radiochemical methyltransferase assay, Michaelis-Menten fit
Holding throughout (settings): SAM 320 μM (saturating), 50 mM Tris-HCl, 24 °C

For test [1], the system named is PcCS2. The format is biochemical, Paullinia cupana.
Test [2] deals with TcCS2. Format: biochemical, Theobroma cacao.
The test system of test [3] is TcAncCS2. The format is biochemical, synthetic construct.
The subject of test [4] is TcAncCS1. The format is biochemical, synthetic construct.
In test [5] the test system is CsAncCS. The format is biochemical, synthetic construct.
The test system of test [6] is PcAncCS1. Format: biochemical, synthetic construct.
Test [7] deals with TcCS1. The format is biochemical, Theobroma cacao.
The subject of test [8] is PcCS1. Format: biochemical, Paullinia cupana.

For the molecule `Cn1c(=O)[nH]c(=O)c2[nH]cnc21` [3X, 3-methylxanthine], the Km in test [1] was 677 µM; in test [2], 49.1 µM; in test [3], 154 µM; in test [4], 139 µM.
Turning to `Cn1cnc2[nH]c(=O)[nH]c(=O)c21` [7X, 7-methylxanthine], the Km in test [5] turned out to be 26.7 µM; in test [4] it was 34.6 µM.
With `O=c1[nH]c(=O)c2[nH]cnc2[nH]1` [X, xanthine], the Km in test [6] was 418 µM; in test [7], 95.8 µM; in test [8], 95.4 µM; in test [3], 4.14 µM; in test [4], 53.4 µM.

By Km is commonly meant the concentration of substrate that gives half-maximal velocity.
